According to patent US6716833B2, “Acetylenic α-amino acid-based sulfonamide hydroxamic acid tace inhibitors” (priority 1999, dated 2004):
pIC50: −log10 of the molar value. Structures can show the parent of a compound that is named as a salt. Where two headings read alike, the source gives them in different places.

Key:
MMP-1 = molecular target: T1, MMP-1 (Homo sapiens, UniProt P03956); assay: MMP-1 inhibition (thiopeptide or fluorescent peptide substrate); assay type: biochemical; conditions: read-out: MMP-1 IC50
T1 sequence (P03956 100-469): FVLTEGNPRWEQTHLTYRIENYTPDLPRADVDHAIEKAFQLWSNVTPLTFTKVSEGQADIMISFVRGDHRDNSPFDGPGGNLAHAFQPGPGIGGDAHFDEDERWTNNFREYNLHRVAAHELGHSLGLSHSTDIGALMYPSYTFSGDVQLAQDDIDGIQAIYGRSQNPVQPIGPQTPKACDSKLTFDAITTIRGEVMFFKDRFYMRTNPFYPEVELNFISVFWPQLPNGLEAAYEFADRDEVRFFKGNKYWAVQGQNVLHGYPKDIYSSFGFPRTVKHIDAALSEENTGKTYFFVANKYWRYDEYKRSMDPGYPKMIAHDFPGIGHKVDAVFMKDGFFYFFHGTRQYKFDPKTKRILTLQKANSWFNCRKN

[1] = molecular target: TNF-α converting enzyme (TACE) (Homo sapiens, UniProt P78536); assay: TACE inhibition (fluorescent peptidyl substrate); assay type: biochemical; conditions: read-out: TACE IC50
TNF-α converting enzyme (TACE), sequence (P78536 215-824, species assumed): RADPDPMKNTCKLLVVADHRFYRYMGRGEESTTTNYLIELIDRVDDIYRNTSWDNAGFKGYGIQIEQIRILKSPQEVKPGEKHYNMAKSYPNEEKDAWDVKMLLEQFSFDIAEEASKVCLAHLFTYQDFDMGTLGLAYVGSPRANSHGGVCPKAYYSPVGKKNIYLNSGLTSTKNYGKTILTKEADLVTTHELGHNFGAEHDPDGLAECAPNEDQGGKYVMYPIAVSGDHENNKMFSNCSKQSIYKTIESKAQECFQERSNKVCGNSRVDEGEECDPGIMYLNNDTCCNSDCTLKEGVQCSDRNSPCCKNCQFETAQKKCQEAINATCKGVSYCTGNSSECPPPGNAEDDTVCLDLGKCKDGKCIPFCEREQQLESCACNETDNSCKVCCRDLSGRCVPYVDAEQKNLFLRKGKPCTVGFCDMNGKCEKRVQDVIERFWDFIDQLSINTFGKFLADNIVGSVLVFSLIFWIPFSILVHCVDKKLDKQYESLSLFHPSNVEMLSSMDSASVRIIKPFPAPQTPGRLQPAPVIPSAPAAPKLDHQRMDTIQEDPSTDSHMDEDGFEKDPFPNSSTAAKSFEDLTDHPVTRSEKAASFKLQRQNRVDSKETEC

MMP-13 = MMP-13 (Homo sapiens, UniProt P45452); assay: MMP-13 inhibition (thiopeptide or fluorescent peptide substrate); assay type: biochemical; conditions: read-out: MMP-13 IC50
MMP-9 = MMP-9 (Homo sapiens, UniProt P14780); assay: MMP-9 inhibition (thiopeptide or fluorescent peptide substrate); assay type: biochemical; conditions: read-out: MMP-9 IC50
MMP-9, sequence (P14780 94-707): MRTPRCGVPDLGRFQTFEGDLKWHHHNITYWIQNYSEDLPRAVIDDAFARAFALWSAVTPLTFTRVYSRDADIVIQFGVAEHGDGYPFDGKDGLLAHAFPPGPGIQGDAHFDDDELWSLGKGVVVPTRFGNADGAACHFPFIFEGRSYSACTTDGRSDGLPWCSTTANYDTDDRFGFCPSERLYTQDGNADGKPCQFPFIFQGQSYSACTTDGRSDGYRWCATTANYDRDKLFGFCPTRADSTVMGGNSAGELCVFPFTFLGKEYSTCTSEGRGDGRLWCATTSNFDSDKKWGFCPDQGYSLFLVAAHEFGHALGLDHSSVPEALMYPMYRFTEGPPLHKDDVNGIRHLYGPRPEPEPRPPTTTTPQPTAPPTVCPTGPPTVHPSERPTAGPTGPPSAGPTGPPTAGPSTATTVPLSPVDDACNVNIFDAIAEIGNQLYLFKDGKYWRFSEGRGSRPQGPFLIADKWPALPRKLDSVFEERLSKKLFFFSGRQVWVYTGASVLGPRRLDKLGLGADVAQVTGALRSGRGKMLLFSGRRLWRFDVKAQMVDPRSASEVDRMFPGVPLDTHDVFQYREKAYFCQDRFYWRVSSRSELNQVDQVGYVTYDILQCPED

| Structure (SMILES) | melting point | pIC50 (MMP-1) | pIC50 [1] | pIC50 (MMP-13) | pIC50 (MMP-9) | pIC50 (MMP-1; Table 9) | pIC50 ([1]; Table 9) | pIC50 (MMP-13; Table 9) |
| --- | --- | --- | --- | --- | --- | --- | --- | --- |
| CC#CCOc1ccc(S(=O)(=O)N(C)C(C(=O)NO)C(C)(C)SCCN2CCOCC2)cc1 (centres unmarked) (as salt: hydrochloride) [Example 140, 2-({[4-(2-Butynyloxy)phenyl]sulfonyl)(methyl)amino]-N-hydroxy-3 Methyl-3-[(2(4-morpholinylethyl)sulfanyl]-butanamide Hydrochloride] | 50 °C (dec.) | – | – | – | – | – | – | – |
| CC#CCOc1ccc(S(=O)(=O)N(C)C(C(=O)NO)c2ccc(OCCCNC(=O)OCC)cc2)cc1 (centres unmarked) [Example 193, Ethyl 3-{4-[1-[{[4-(2-Butynyloxy)phenyl]sulfonyl}(methyl)amino]-2-(hydroxyamino)-2-oxoethyl]phenoxy}propylcarbamate] | 60 to 62 °C | ~6.00 | 7.21 | 7.53 | – | – | – | – |
| CC#CCOc1ccc(S(=O)(=O)N(C)C(C(=O)NO)C(C)(C)SCCN2CCCC2)cc1 (centres unmarked) [Example 143, 2-({[4-(2-Butynyloxy)phenyl]sulfonyl)(methyl)amino]-N-hydroxy-3 Methyl-3-{[2(1-pyrrolidinyl)ethyl]sulfanyl}butanamide] | 55 to 57 °C | – | – | – | – | – | – | – |
| CC#CCOc1ccc(S(=O)(=O)N(C)C(C(=O)NO)C(C)(C)SCCn2ccnc2)cc1 (centres unmarked) (as salt: hydrochloride) [Example 144, 2-({[4-(2-Butynyloxy)phenyl]sulfonyl)(methyl)amino]-N-hydroxy-3 Methyl-3-{[2-(1H-imidazol-1-yl)ethyl]sulfanyl}butanamide] | 67 to 70 °C | – | – | – | – | – | – | – |
| CC#CCOc1ccc(S(=O)(=O)N2CCSC3(CCCC3)C2C(=O)NO)cc1 (centres unmarked) [Example 236] | 206 to 208 °C | – | – | – | – | 7.62 | 7.37 | 7.96 |
| CC#CCOc1ccc(S(=O)(=O)N(C)C(C(=O)NO)C(C)(C)SCC(C)N(CC)CC)cc1 (centres unmarked) [Example 148, 2-({[4-(2-Butynyloxy)phenyl]sulfonyl)(methyl)amino]-N-hydroxy-3 Methyl-3-{[2-(diethylamino)propyl]sulfanyl}butanamide] | 65 to 68 °C | – | – | – | – | – | – | – |
| CC#CCOc1ccc(S(=O)(=O)N(C)C(C(=O)NO)C2CCCCC2)cc1 (centres unmarked) [Example 115, 2-[(4-but-2-ynyloxy-Benzenesulfonyl)-methyl-amino]-2-cyclohexyl-N-hydroxy-acetamide] | – | 7.03 | 7.51 | 8.18 | 7.85 | – | – | – |
| CC#CCOc1ccc(S(=O)(=O)NC(C(=O)NO)C(C)(C)SCC(=O)O)cc1 (centres unmarked) (as salt: sodium) [Example 166, tert-Butyl {[2-({[4-2-Butynyloxy)phenyl]sulfonyl}amino)-3-(hydroxyamino)-1,1-dimethyl-3-oxopropyl]sulfanyl Acetic Acid, Sodium Salt] | 75 °C (dec.) | – | – | – | – | – | – | – |
| CC#CCOc1ccc(S(=O)(=O)N2CCN(Cc3ccc(Br)cc3)CC2C(=O)NO)cc1 (centres unmarked) [Example 233, 4-(4-Bromo-benzyl)-1-(4-but-2-ynyloxy-benzenesulfonyl)-piperazine-2-carboxylic Acid Hydroxyamide] | – | 5.55 | 6.74 | 7.26 | 7.16 | – | – | – |
| CC#CCOc1ccc(S(=O)(=O)N(CCC)C(C(=O)NO)C(C)C)cc1 (centres unmarked) [Example 110, 2[(4-but-2-ynyloxy-Benzenesulfonyl)-propyl-amino]-N-hydroxy-3-methyl-butyramide] | – | 6.71 | 7.18 | 6.82 | 6.32 | – | – | – |
| CC#CCOc1ccc(S(=O)(=O)N(C)C(C(=O)NO)C(C)(C)SCCC)cc1 (centres unmarked) [Example 151, 2-[(4-but-2-ynyloxy-Benenesulfonyl)-methyl-amino]-N-hydroxy-3-methyl-3-propylsulfanyl-butyramide] | – | 7.62 | 7.51 | 7.85 | 7.51 | – | – | – |
| CC#CCOc1ccc(S(=O)(=O)N2CCN(C(C)=O)CC2C(=O)NO)cc1 (centres unmarked) [Example 224, 4-Acetyl-1-(4-but-2-ynyloxy-benzenesulfonyl)-piperazine-2-carboxylic Acid Hydroxyamide] | – | 6.45 | 7.89 | 7.66 | 7.06 | – | – | – |
| C#CCOc1ccc(C(NS(=O)(=O)c2ccc(OCC#CC)cc2)C(=O)NO)cc1 (centres unmarked) [Example 177, 2-({[4-(2-Butynyloxy)phenyl]sulfonyl}amino)-N-hydroxy-2-[4(2-propynyloxy)phenyl]acetamide] | – | > 5.00 | 8.32 | 7.24 | 6.51 | – | – | – |
| CC#CCOc1ccc(S(=O)(=O)N(Cc2cccnc2)C(C)C(=O)NO)cc1 (centres unmarked) [Example 33, 2-[(4-but-2-ynyloxy-Benzenesulfonyl)-pyridin-3-ylmethyl-amino]-N-hydroxy-propionamide Hydrochloride] | – | 6.62 | 8.30 | 7.59 | 7.19 | – | – | – |
| CC#CCOc1ccc(S(=O)(=O)N(CC#CCN2CCN(C)CC2)C(C(=O)NO)C(C)C)cc1 (centres unmarked) [Example 125, 2-{{[4-(2-Butynyloxy)phenyl]sulfonyl}[4-(4-methyl-1-piperazinyl)-2-butynyl]amino}-N-hydroxy-3-methylbutanamide] | – | 6.30 | 6.97 | 6.82 | 6.07 | – | – | – |
| CC#CCOc1ccc(S(=O)(=O)N2CCN(C(=O)N(C)c3ccccc3)CC2C(=O)NO)cc1 (centres unmarked) [Example 220, 4-(4-but-2-ynyloxy-Benzenesulfonyl)-piperazine-1,3-dicarboxylic Acid 3-Hydroxyamide 1-(Methyl-phenyl-amide)] | – | 5.79 | 7.70 | 7.21 | 6.25 | – | – | – |

Second part, led by results:

| melting point | pIC50 (MMP-1) | pIC50 [1] | pIC50 (MMP-13) | pIC50 (MMP-9) | Structure (SMILES) | pIC50 (MMP-1; Table 9) | pIC50 ([1]; Table 9) | pIC50 (MMP-13; Table 9) |
| --- | --- | --- | --- | --- | --- | --- | --- | --- |
| 144 to 145.5 °C | 6.34 | 6.68 | 8.05 | – | CC#CCOc1ccc(S(=O)(=O)N(C)C(CCCSc2ccc(Cl)cc2)C(=O)NO)cc1 (centres unmarked) [Example 213, 2-[{[4-(2-Butynyloxy)phenyl]sulfonyl}(methyl)amino]-5[(4-chlorophenyl)sulfanyl]-N-hydroxypentanamide] | – | – | – |
| 95 to 98 °C | – | – | – | – | CC#CCOc1ccc(S(=O)(=O)N2CCSCCC2C(=O)NO)cc1 (centres unmarked) [Example 294, 4-{[4-(2-Butynyloxy)phenyl]sulfonyl}-N-hydroxy-1,4-thiazepine-5-carboxamide] | – | – | – |
| 50 to 55 °C | < 6.00 | 6.91 | 7.55 | – | CC#CCOc1ccc(S(=O)(=O)N(C)C(C(=O)NO)c2ccc(OCCCNC(=O)OCCCC)cc2)cc1 (centres unmarked) [Example 195, Butyl 3-{4-[1-[{[4-(2-Butynyloxy)phenyl]sulfonyl}(methyl)amino]-2-(hydroxyamino)-2-oxoethyl]phenoxy}propylcarbamate] | – | – | – |
| 88 °C (dec.) | 6.23 | 7.21 | 7.82 | – | CC#CCOc1ccc(S(=O)(=O)N(C)C(C(=O)NO)c2ccc(OCCCNC(C)=O)cc2)cc1 (centres unmarked) [Example 194] | – | – | – |
| 92 to 95 °C | < 5.00 | 6.95 | 6.46 | – | CC#CCOc1ccc(S(=O)(=O)NC(C(=O)NO)c2ccc(OCCN3CCN(C(=O)OC(C)(C)C)CC3)cc2)cc1 (centres unmarked) [Example 202, tert-Butyl 4-(2-{4-[1-({[4-(2-Butynyloxy)phenyl]sulfonyl}amino)-2-(hydroxyamino)-2-oxoethyl)phenoxy]ethyl)-1-piperazinecarboxylate] | – | – | – |
| 48 to 50 °C | – | 6.96 | 7.51 | – | CC#CCOc1ccc(S(=O)(=O)N(C)C(C(=O)NO)c2ccc(OCCCNC(=O)OCc3ccccc3)cc2)cc1 (centres unmarked) [Example 196, Benzyl 3-{4-[1-[{[4-(2-Butynyloxy)phenyl]sulfonyl}(methyl)amino]-2-(hydroxyamino)-2-oxoethyl]phenoxy}propylcarbamate] | – | – | – |
| 151 to 153 °C | – | – | – | – | CC#CCOc1ccc(S(=O)(=O)N2CCSC3(CCN(Cc4ccccc4)CC3)C2C(=O)NO)cc1 (centres unmarked) (as salt: hydrochloride) [Example 241, 9-Benzyl-4-{[4-(2-butynyloxy)phenyl]sulfonyl}-N-hydroxy-1-thia-4,9-diazaspiro[5.5]undecane-5-carboxamide] | – | – | – |
| 70 °C | – | – | – | – | CC#CCOc1ccc(S(=O)(=O)NC(C(=O)NO)c2ccc(OCCN3CCCC3)cc2)cc1 (centres unmarked) (as salt: hydrochloride) [Example 205, 2-({[4-(2-Butynyloxy)phenyl]sulfonyl}amino)-N-hydroxy-2-{4-[2-(1-pyrrolidinyl)ethoxy]phenyl}acetamide] | – | – | – |
| 195 to 198 °C | – | – | – | – | CC#CCOc1ccc(S(=O)(=O)N2CCSC3(CCN(C)CC3)C2C(=O)NO)cc1 (centres unmarked) [Example 242, 9-Methyl-4-{[4-(2-butynyloxy)phenyl]sulfonyl}-N-hydroxy-1-thia-4,9-diazaspiro[5.5]undecane-5-carboxamide] | – | 6.06 | – |
| – | ~5.00 | 7.38 | 6.86 | 6.06 | CC#CCOc1ccc(S(=O)(=O)N[C@@H](C(=O)NO)c2ccc(OCCNC(=O)OC(C)(C)C)cc2)cc1 [Example 199, tert-Butyl 2-{4-[(1R)-1-({[4-(2-Butynyloxy)phenyl]sulfonyl}amino)-2-(hydroxyamino)-2-oxoethyl]phenoxy}ethylcarbamate] | – | – | – |
